The target in one assay is P70S6K (T412E mutant) (Homo sapiens (Human), UniProt P23443, T412E). Nature of the assay: P70S6K enzyme assay. The format is biochemical. To be noted: read-out: IC50 p70S6K. As to the method:
P70S6K inhibitor compounds are diluted and plated in 96 well plates. […] The reaction is incubated for 90 min at 25° C., before the addition of 10 mM EDTA to stop the reaction. The proportion of substrate and product (phosphorylated) peptide is analysed on a Caliper Life Sciences Lab Chip 3000, using a pressure of −1.4 psi, and upstream and downstream voltages of −3000 and −700 respectively. Product peaks are resolved before substrate peaks on the resulting chromatograms.

Another assay concerns the target His-AKT (Full Length) (Homo sapiens (Human), UniProt P31749). The assay is described as follows: AKT enzyme assay. The format is biochemical. The conditions noted are these: read-out: IC50 AKT. As to the method: A TTP Mosquito liquid handling instrument is used to place 125n1 of the appropriate concentration of inhibitor in 100% DMSO (for a dose response curve calculation) into each well of a 384-well plate.
The reaction is incubated for 90 min at 25 C, and then stopped by the addition of 70 μl of Stop buffer (100 mM HEPES pH 7.5, 0.015% Brij-35, 10 mM EDTA (Sigma, E7889)).
The plate is read on a Caliper LC 3000 in an Off-Chip mobility shift assay format, using the following parameters for a 12-sipper chip: screening pressure −2.3 psi, upstream voltage −500, and downstream voltage −3000. These conditions cause unphosphorylated substrate and phosphorylated product peptide to resolve as separate peaks allowing direct measurement of percentage of conversion of substrate to product. The percent conversion can be plotted against concentration of inhibitor to produce a sigmoidal dose response curve, from which an IC50 can be calculated.

His-AKT (Full Length), sequence (P31749 whole entry): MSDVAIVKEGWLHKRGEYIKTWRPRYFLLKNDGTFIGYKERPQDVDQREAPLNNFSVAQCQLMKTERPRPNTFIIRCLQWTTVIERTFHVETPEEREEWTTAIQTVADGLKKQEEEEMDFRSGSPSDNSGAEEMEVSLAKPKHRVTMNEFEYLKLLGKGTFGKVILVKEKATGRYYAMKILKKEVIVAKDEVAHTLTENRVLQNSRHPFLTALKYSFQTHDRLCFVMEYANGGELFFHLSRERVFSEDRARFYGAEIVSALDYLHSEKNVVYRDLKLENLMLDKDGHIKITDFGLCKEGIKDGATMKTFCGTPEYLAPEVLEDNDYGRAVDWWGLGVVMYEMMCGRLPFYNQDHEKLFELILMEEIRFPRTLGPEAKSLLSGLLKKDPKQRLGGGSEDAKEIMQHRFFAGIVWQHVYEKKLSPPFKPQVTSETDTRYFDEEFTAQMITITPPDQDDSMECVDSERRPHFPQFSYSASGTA
P70S6K (T412E mutant), sequence (P23443 whole entry T412E): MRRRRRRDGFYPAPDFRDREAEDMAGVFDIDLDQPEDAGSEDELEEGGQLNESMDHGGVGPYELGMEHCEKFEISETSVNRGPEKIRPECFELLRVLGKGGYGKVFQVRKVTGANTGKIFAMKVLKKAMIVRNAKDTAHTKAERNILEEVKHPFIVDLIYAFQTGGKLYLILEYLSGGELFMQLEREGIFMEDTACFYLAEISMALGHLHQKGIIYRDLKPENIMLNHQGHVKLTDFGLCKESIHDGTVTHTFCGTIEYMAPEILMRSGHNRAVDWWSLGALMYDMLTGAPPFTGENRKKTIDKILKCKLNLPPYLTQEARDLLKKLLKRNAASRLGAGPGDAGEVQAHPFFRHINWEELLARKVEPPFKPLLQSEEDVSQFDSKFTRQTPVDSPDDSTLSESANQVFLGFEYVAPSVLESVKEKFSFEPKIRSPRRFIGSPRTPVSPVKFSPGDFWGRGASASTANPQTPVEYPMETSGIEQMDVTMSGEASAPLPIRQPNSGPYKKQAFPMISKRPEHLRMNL

A word on the IC50: it is the concentration that inhibits the measured activity by half. As to `Cn1cc(-c2ccc(F)c(C(F)(F)F)c2)nc1C1CCN(c2ncnc(N)c2C=O)CC1` [Compound 6, 4-Amino-6-{4-[4-(4-fluoro-3-trifluoromethyl-phenyl)-1-methyl-1H-imidazol-2-yl]-piperidin-1-yl}-pyrimidine-5-carbaldehyde], the IC50 on P70S6K (T412E mutant) is 0.6 nM; at His-AKT (Full Length) it was 160 nM.

Consider `Nc1ncnc(N2CCC(c3nc(-c4ccnc(C(F)(F)F)c4)cn3CCNCCCCl)CC2)c1Br` [Compound 127, 5-bromo-6-(4-(1-(2-((3-chloropropyl)amino)ethyl)-4-(2-(trifluoromethyl)pyridin-4-yl)-1H-imidazol-2-yl)piperidin-1-yl)pyrimidin-4-amine], for which the IC50 at P70S6K (T412E mutant) is 1 nM; at His-AKT (Full Length) it was 2.8 nM.

As to `Nc1ncnc(N2CCC(c3nc(-c4ccnc(C(F)(F)F)c4)cn3CCN3CCC3)CC2)c1OCC(F)(F)F` [Compound 118, 6-(4-(1-(2-(azetidin-1-yl)ethyl)-4-(2-(trifluoromethyl)pyridin-4-yl)-1H-imidazol-2-yl)piperidin-1-yl)-5-(2,2,2-trifluoroethoxy)pyrimidin-4-amine], the IC50 is 9.7 nM at P70S6K (T412E mutant) and 21 nM at His-AKT (Full Length).

In the case of `COCCN(C)CCn1cc(-c2ccc(F)c(C(F)(F)F)c2)nc1C1CCN(c2ncnc(N)c2C#N)CC1` [Compound 363, 4-Amino-6-[4-(4-(4-fluoro-3-trifluoromethyl-phenyl)-1-{2-[(2-methoxy-ethyl)-methyl-amino]-ethyl}-1H-imidazol-2-yl)-piperidin-1-yl]-pyrimidine-5-carbonitrile], the IC50 was determined as 3.4 nM on P70S6K (T412E mutant) and 26 nM at His-AKT (Full Length).

Take `Nc1ncnc(N2CCC(c3nc(-c4ccc(F)c(F)c4)cn3CCN3CCCC3)CC2)c1Br` [Compound 226]: the IC50 was found to be 1.3 nM on P70S6K (T412E mutant) and 1.7 nM on His-AKT (Full Length).

Turning to `N#Cc1c(N)ncnc1N1CCC(c2nc(-c3ccc(F)c(C(F)(F)F)c3)cn2CC2CCCN2)CC1` (stereo not shown) [Compound 147, 4-amino-6-(4-(4-(4-fluoro-3-(trifluoromethyl)phenyl)-1-(pyrrolidin-2-ylmethyl)-1H-imidazol-2-yl)piperidin-1-yl)pyrimidine-5-carbonitrile], the IC50 came to 1.8 nM on P70S6K (T412E mutant) and 2.9 nM at His-AKT (Full Length).

With `Cn1cc(-c2ccc(F)c(C(F)(F)F)c2)nc1C1CCN(c2ncnc(N)c2Br)CC1` [Compound 1, 5-Bromo-6-{4-[4-(4-fluoro-3-trifluoromethyl-phenyl)-1-methyl-1H-imidazol-2-yl]-piperidin-1-yl}-pyrimidin-4-ylamine], the results for the IC50 on P70S6K (T412E mutant) and at His-AKT (Full Length) were 2.1 nM and 66 nM, respectively.

In the case of `CCc1c(N)ncnc1N1CCC(c2nc(-c3ccc(F)c(F)c3)cn2CCN2CCC23COC3)CC1` [Compound 203, 6-(4-{4-(3,4-Difluoro-phenyl)-1-[2-(6-oxa-1-aza-spiro[3.3]hept-1-yl)-ethyl]-1H-imidazol-2-yl}-piperidin-1-yl)-5-ethyl-pyrimidin-4-ylamine], the concentration for half-maximal inhibition (IC50) was 30 nM on P70S6K (T412E mutant) and 2500 nM at His-AKT (Full Length).

On to `COc1c(N)ncnc1N1CCC(c2nc(-c3ccnc(C(F)(F)F)c3)cn2CCN2CCC2)CC1` [Compound 115, 6-(4-(1-(2-(azetidin-1-yl)ethyl)-4-(2-(trifluoromethyl)pyridin-4-yl)-1H-imidazol-2-yl)piperidin-1-yl)-5-methoxypyrimidin-4-amine], for which the IC50 at P70S6K (T412E mutant) is 2.8 nM; on His-AKT (Full Length), 21 nM.

In the case of `CCc1c(N)ncnc1N1CCC(c2nc(-c3ccc(F)c(C(F)(F)F)c3)cn2CCN2CCCCC2)CC1` [Compound 276], the 50% inhibitory concentration (IC50) on P70S6K (T412E mutant) came to 2.8 nM; at His-AKT (Full Length), 9.3 nM.

Turning to `CCc1c(N)ncnc1N1CCC(c2nc(-c3ccc(F)cc3)cn2CCN2CCC3(COC3)C2)CC1` [Compound 201, 5-Ethyl-6-(4-{4-(4-fluoro-phenyl)-1-[2-(2-oxa-6-aza-spiro[3.4]oct-6-yl)-ethyl]-1H-imidazol-2-yl}-piperidin-1-yl)-pyrimidin-4-ylamine], the figures for the 50% inhibitory concentration (IC50) on P70S6K (T412E mutant) and on His-AKT (Full Length) were 16 nM and more than 1000 nM, respectively.

(Values after patent US9145392B2, “Imidazole amines as modulators of kinase activity” (Merck Patent GmbH, priority 2011, dated 2015).)
